“And” between values parts separate entries of the source, which are not always exact repeats. Identical values can stand only once. Inconclusive results and toxic doses are left out. Rule as the data show it: active = T/C of 150% or more; inactive = T/C below 125%.
Tested on: L1210 leukemia ip in BDF1 mice, survival T/C
Test: NCI In Vivo Anticancer Drug Screen. Data for tumor model L1210 Leukemia (intraperitoneal) in B6D2F1 (BDF1) mice
Conditions: endpoint: mean survival time, higher = longer survival
Summary of the method: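 Tumor was transplanted into mice, which were then dosed with test compound or vehicle alone. Survival was recorded for each group, and the treated figure was expressed relative to the control figure.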

[1] = dose: 50.0 mg/kg/injection, schedule: Q01DX001 (ip), vehicle: saline
[2] = dose: 100.0 mg/kg/injection, schedule: Q01DX001 (ip), vehicle: saline
[3] = dose: 200.0 mg/kg/injection, schedule: Q01DX001 (ip), vehicle: saline
[4] = dose: 400.0 mg/kg/injection, schedule: Q01DX001 (ip), vehicle: saline
[5] = dose: 100.0 mg/kg/injection, schedule: Q04DX003 (ip), vehicle: saline
[6] = dose: 200.0 mg/kg/injection, schedule: Q04DX003 (ip), vehicle: saline
[7] = dose: 100.0 mg/kg/injection, schedule: Q01DX009 (ip), vehicle: saline
[8] = dose: 200.0 mg/kg/injection, schedule: Q01DX009 (ip), vehicle: saline
[9] = dose: 50.0 mg/kg/injection, schedule: Q01DX009 (ip), vehicle: Klucel (hydroxypropylcellulose) (HPC)
[10] = dose: 100.0 mg/kg/injection, schedule: Q01DX009 (ip), vehicle: Klucel (hydroxypropylcellulose) (HPC)

Measured: T/C

Clc1cccc(Cl)c1C[N+]12CN3CN(CN(C3)C1)C2
inactive: dose: 30.0 mg/kg/injection, schedule: Q01DX015 (ip), vehicle: saline 95 % of control | dose: 60.0 mg/kg/injection, schedule: Q01DX015 (ip), vehicle: saline 100 % of control | dose: 120.0 mg/kg/injection, schedule: Q01DX015 (ip), vehicle: saline 105 % of control

O=C1C(=O)C(c2ccccc2)Oc2ccccc21 (centres undefined)
inactive: [1] 89 % of control | [2] 101 % of control | [3] 98 % of control | [4] 95 % of control

ClCC[N-]CC[N-]CCCl.ClCC[N-]CC[N-]CCCl.[O-][Cl+3]([O-])([O-])O.[Zn+2]
active: dose: 40.0 mg/kg/injection, schedule: Q03DX003 (ip), vehicle: saline 161 % of control | dose: 40.0 mg/kg/injection, schedule: Q## X003 (ip), vehicle: saline 161 % of control
inactive: dose: 5.0 mg/kg/injection, schedule: Q01DX009 (ip), vehicle: Klucel (hydroxypropylcellulose) (HPC) 102 % of control | dose: 5.0 mg/kg/injection, schedule: Q03DX003 (ip), vehicle: saline 95 % of control | dose: 5.0 mg/kg/injection, schedule: Q## X003 (ip), vehicle: saline 95 % of control | dose: 9.0 mg/kg/injection, schedule: Q01DX009 (ip), vehicle: Klucel (hydroxypropylcellulose) (HPC) 94 % of control | dose: 10.0 mg/kg/injection, schedule: Q01DX009 (ip), vehicle: Klucel (hydroxypropylcellulose) (HPC) 97 % of control | dose: 10.0 mg/kg/injection, schedule: Q03DX003 (ip), vehicle: saline 104 % of control | dose: 10.0 mg/kg/injection, schedule: Q## X003 (ip), vehicle: saline 104 % of control | dose: 18.0 mg/kg/injection, schedule: Q01DX009 (ip), vehicle: Klucel (hydroxypropylcellulose) (HPC) 100 % of control | dose: 20.0 mg/kg/injection, schedule: Q01DX009 (ip), vehicle: Klucel (hydroxypropylcellulose) (HPC) 116 % of control | dose: 20.0 mg/kg/injection, schedule: Q03DX003 (ip), vehicle: saline 121 % of control | dose: 20.0 mg/kg/injection, schedule: Q## X003 (ip), vehicle: saline 121 % of control | dose: 80.0 mg/kg/injection, schedule: Q03DX003 (ip), vehicle: saline 80 % of control

O=C(CCCN1CCC(O)CC1)c1ccccc1
inactive: [5] 90 % of control | [6] 104 % of control

NCc1nc(C(=O)O)cs1
inactive: [2] 110 % of control | [7] 91 % of control | [5] 116 % of control | [3] 102 % of control | [8] 87 % of control | [6] 112 % of control | [4] 112 % of control | dose: 400.0 mg/kg/injection, schedule: Q01DX009 (ip), vehicle: saline 86 % of control | dose: 400.0 mg/kg/injection, schedule: Q04DX003 (ip), vehicle: saline 96 % of control

CSc1ccc(NC(=O)Oc2cc3ccccc3cc2C(=O)Nc2ccc(Cl)cc2)cc1
inactive: dose: 100.0 mg/kg/injection, schedule: Q01DX009 (ip), vehicle: saline with Tween-80 99 % of control and 86 % of control | dose: 100.0 mg/kg/injection, schedule: Q04DX002 (ip), vehicle: saline with Tween-80 88 % of control | dose: 100.0 mg/kg/injection, schedule: Q04DX003 (ip), vehicle: saline with Tween-80 90 % of control | dose: 200.0 mg/kg/injection, schedule: Q01DX009 (ip), vehicle: saline with Tween-80 111 % of control and 89 % of control | dose: 200.0 mg/kg/injection, schedule: Q04DX002 (ip), vehicle: saline with Tween-80 91 % of control and 92 % of control | dose: 200.0 mg/kg/injection, schedule: Q04DX003 (ip), vehicle: saline with Tween-80 92 % of control | dose: 400.0 mg/kg/injection, schedule: Q01DX009 (ip), vehicle: saline with Tween-80 95 % of control and 96 % of control | dose: 400.0 mg/kg/injection, schedule: Q04DX002 (ip), vehicle: saline with Tween-80 94 % of control and 103 % of control | dose: 400.0 mg/kg/injection, schedule: Q04DX003 (ip), vehicle: saline with Tween-80 87 % of control

Fc1c(F)c(C(F)(F)F)c(F)c(F)c1P(c1c(F)c(F)c(C(F)(F)F)c(F)c1F)c1c(F)c(F)c(C(F)(F)F)c(F)c1F
inactive: dose: 75.0 mg/kg/injection, schedule: Q01DX009 (ip), vehicle: Klucel (hydroxypropylcellulose) (HPC) 123 % of control | dose: 100.0 mg/kg/injection, schedule: Q04DX003 (ip), vehicle: Klucel (hydroxypropylcellulose) (HPC) 97 % of control | dose: 150.0 mg/kg/injection, schedule: Q01DX009 (ip), vehicle: Klucel (hydroxypropylcellulose) (HPC) 96 % of control | dose: 200.0 mg/kg/injection, schedule: Q04DX003 (ip), vehicle: Klucel (hydroxypropylcellulose) (HPC) 100 % of control | dose: 300.0 mg/kg/injection, schedule: Q01DX009 (ip), vehicle: Klucel (hydroxypropylcellulose) (HPC) 100 % of control | dose: 400.0 mg/kg/injection, schedule: Q04DX003 (ip), vehicle: Klucel (hydroxypropylcellulose) (HPC) 100 % of control

COc1cc(N(CCCl)CCCl)c(OC)cc1C=Nc1ccccc1C(=O)O
inactive: dose: 2.6 mg/kg/injection, schedule: Q01DX009 (ip), vehicle: carboxymethylcellulose (CMC) 108 % of control | dose: 4.4 mg/kg/injection, schedule: Q01DX009 (ip), vehicle: carboxymethylcellulose (CMC) 116 % of control | dose: 5.5 mg/kg/injection, schedule: Q01DX001 (ip), vehicle: Klucel (hydroxypropylcellulose) (HPC) 109 % of control | dose: 6.6 mg/kg/injection, schedule: Q01DX009 (ip), vehicle: carboxymethylcellulose (CMC) 123 % of control | dose: 10.0 mg/kg/injection, schedule: Q01DX009 (ip), vehicle: carboxymethylcellulose (CMC) 123 % of control | dose: 11.0 mg/kg/injection, schedule: Q01DX001 (ip), vehicle: Klucel (hydroxypropylcellulose) (HPC) 111 % of control | dose: 19.0 mg/kg/injection, schedule: Q01DX001 (ip), vehicle: carboxymethylcellulose (CMC) 117 % of control | dose: 22.0 mg/kg/injection, schedule: Q01DX001 (ip), vehicle: Klucel (hydroxypropylcellulose) (HPC) 117 % of control | dose: 29.0 mg/kg/injection, schedule: Q01DX001 (ip), vehicle: carboxymethylcellulose (CMC) 118 % of control

C[N+]1(CCO)CC[N+](C)(CCO)CC1 (centres undefined)
inactive: dose: 100.0 mg/kg/injection, schedule: Q04DX002 (ip), vehicle: saline 90 % of control | dose: 200.0 mg/kg/injection, schedule: Q04DX002 (ip), vehicle: saline 104 % of control | dose: 400.0 mg/kg/injection, schedule: Q04DX002 (ip), vehicle: saline 101 % of control

CC(=O)Nc1cccc(OCc2ccc([N+](=O)[O-])cc2)c1
inactive: [9] 111 % of control | [10] 97 % of control | dose: 200.0 mg/kg/injection, schedule: Q01DX009 (ip), vehicle: Klucel (hydroxypropylcellulose) (HPC) 97 % of control

CN(/C(N)=N/[N+](=O)[O-])c1cccnc1
inactive: dose: 6.0 mg/kg/injection, schedule: Q04DX002 (ip), vehicle: Klucel (hydroxypropylcellulose) (HPC) 103 % of control | dose: 12.0 mg/kg/injection, schedule: Q04DX002 (ip), vehicle: Klucel (hydroxypropylcellulose) (HPC) 103 % of control | dose: 25.0 mg/kg/injection, schedule: Q04DX002 (ip), vehicle: Klucel (hydroxypropylcellulose) (HPC) 103 % of control | [9] 103 % of control | dose: 50.0 mg/kg/injection, schedule: Q04DX002 (ip), vehicle: Klucel (hydroxypropylcellulose) (HPC) 95 % of control | [10] 107 % of control | dose: 100.0 mg/kg/injection, schedule: Q04DX002 (ip), vehicle: Klucel (hydroxypropylcellulose) (HPC) 91 % of control and 92 % of control

CC(=O)OC1COC(NC(=O)NNc2ccccc2)C(OC(C)=O)C1OC(C)=O (centres undefined)
inactive: [7] 88 % of control | dose: 100.0 mg/kg/injection, schedule: Q04DX003 (ip), vehicle: water 94 % of control | [8] 92 % of control | dose: 200.0 mg/kg/injection, schedule: Q04DX003 (ip), vehicle: water 97 % of control | dose: 400.0 mg/kg/injection, schedule: Q04DX003 (ip), vehicle: water 96 % of control

CC1CN(Cc2ccccc2)C(=O)N(c2ccccc2)C1=O (centres undefined)
inactive: dose: 100.0 mg/kg/injection, schedule: Q01DX Z (ip), vehicle: methylcellulose (MC) 92 % of control

Ic1cccc(/C=N/Nc2nnc(N/N=C/c3cccc(I)c3)c3ccccc23)c1
inactive: [1] 102 % of control | [2] 102 % of control | [3] 102 % of control | [4] 108 % of control

C=CCOB(OCC=C)OCC=C
inactive: dose: 12.5 mg/kg/injection, schedule: Q01DX009 (ip), vehicle: saline 120 % of control | dose: 25.0 mg/kg/injection, schedule: Q01DX009 (ip), vehicle: saline 101 % of control | dose: 25.0 mg/kg/injection, schedule: Q04DX003 (ip), vehicle: saline 97 % of control | dose: 50.0 mg/kg/injection, schedule: Q01DX009 (ip), vehicle: saline 106 % of control | dose: 50.0 mg/kg/injection, schedule: Q04DX003 (ip), vehicle: saline 103 % of control
